Test results reported in patent US20240317762A1, “PHTHALAZINONE-BASED PARP-1 INHIBITORS” (Oregon Health & Science University, priority 2021, published 2024).
Values joined by “and” are separate entries in the source; they are usually repeats but may differ in a detail not shown here. Equal values may be shown once.

Legend:
[1] = target: R878A PARP-1 (Homo sapiens, UniProt P09874, R878A); experiment: fluorescence polarization DNA competition and affinity assays, R878A mutant; format: binding; conditions: with AZ0108
Experimental: FIG. 4B) Helical domain (pink cartoon) movement observed during the simulation, the red arrows indicate length and direction of movement. FIG. 4C) The residue-residue distance observed between the Ca atoms R878-D770 and Y889-V758, the increased distance sampling corresponds to the helical domain movement. FIG. 4D) PARP-1 WT, D770A, or R878A (40 nM) was incubated with a dumbbell DNA probe carrying an internal FAM group and a central nick at 20 nM with or without compound (25 μM) for 30 minutes. An unlabeled competitor was added and the decrease in fluorescence polarization was measured across time. FIG. 4E) The Kd of PARP-1 WT, D770A, or R878A for a DNA dumbbell probe containing a central nick (5 nM) was measured in a fluorescence polarization assay with and without inhibitor (5 μM). Error bars represent Standard Error of the Mean (SEM) (n=3).

[2] = test system: HEK 293T cells; experiment: cell proliferation (MTT) assay; format: cell-based, human
Experimental: HEK 293T or HEK 293 PARP-1 KO cells were seeded in a 96 well plate at 1000-2000 cells per well. Following an overnight incubation, MTT reagent, 3-(4,5-dimethylthiazol-2-yl)-2,5-diphenyltetrazolium bromide, or a dosage curve of indicated inhibitor was added to each well in quadruplicate. Following a 3-hour incubation at 37° C., wells containing MTT reagent, were aspirated and lysed with 100 μl DMSO. These wells acting as a no growth control were collected, saved @ −20° C., and replaced with 100 μl water. The plate was placed back into the incubator for a total of 72 hours of inhibitor treatment prior to MTT reagent being added for a final time. Following a 3 hour incubation with the reagent, wells were aspirated, and 100 μl DMSO were added to each well, while the no growth control sample was added back to the plate. Absorbance was read on a SpectraMaxi3 plate reader (Molecular Devices). Percent growth was calculated for analysis. Statistical significance was assigned using individual t-tests between conditions for each inhibitor dosage.
(§1) Error bars represent SEM. […] Error bars represent SEM. […] Error bars represent SEM.

[3] = test system: caspase-3/7 activity in HEK 293 cells; experiment: cell apoptosis assay (Caspase-Glo 3/7); format: cell-based, human; conditions: 1 μM, 72 hours
Experimental: HEK 293 or HEK 293 PARP-1 KO cells were seeded in a 96 well plate at 1000-2000 cells per well, a media only “blank” was also included. Following an overnight incubation, cells were treated with 1 μM of indicated inhibitors. “Blank” wells were treated with DMSO. Following a 72 hour inhibitor treatment, the Caspase-Glo 3/7 Assay was completed following the manufacturer instructions (Promega, #G8091). Luminescence was read on a SpectraMax i3 plate reader (Molecular Devices).
as §1

[4] = test system: HEK 293T cells; experiment: DNA synthesis assay (EdU incorporation); format: cell-based, human; conditions: 1 μM, 18 hours, then 10 μM EdU 1.5 hours
Experimental: HEK 293T cells were seeded onto poly-d-lysine treated glass coverslips. […] After incubation, cells were treated with 10 μM EdU (5-ethynyl-2′-deoxyuridine) for 1.5 hours and subsequently fixed with 4% Sucrose/4% Paraformaldehyde in PBS for 15 minutes at RT. Cells were washed 2× with 3% BSA in PBS and permeabilized with 0.3% Triton X-100 in PBS for 20 minutes at RT. After two additional 3% BSA in PBS washes, coverslips were incubated with 500 μl Click-iT reaction cocktail [1× Click-iT reaction buffer, 2 mM CuSO4, 5 μM TAMRA Azide, Reaction buffer additive] for 30 minutes at room temperature (RT) protected from the light. Cells were washed once more with 3% BSA in PBS and twice more with 1×PBS before being mounted using ProLong Gold antifade reagent with DAPI (Invitrogen). All immunofluorescence images were taken on a Zeiss ApoTome2 on Axiolmager and analyzed using Zeiss software. Mean intensity of the TAMRA signal was measured after imposing DAPI masks over the nucleus of each cell. All cells within a 20× image, was analyzed (˜3000 cells/condition).
as §1

[5] = test system: HEK 293T cells; experiment: analysis of cell cycle (DAPI, flow cytometry)
Experimental: After the indicated treatments, cells were washed twice with 1× PBS, trypsinized off of the plate, and washed an additional 2 times with 1×PBS. Cells were then permeabilized using 70% cold ethanol while vortexing before incubating for 30 min at 4° C. Cells were then washed three times with 1×PBS and counted using a hemocytometer to create a final pellet of 1×10^6 cells in for each inhibitor condition. 500 μl of DAPI solution (1 μg/ml DAPI, 0.1% Triton X-100 in PBS) was added to each cell pellet and incubated on ice for 30 min before being analyzed by flow cytometry using a BD Canto II. All data was analyzed on FlowJo software, gating for 20,000 singlet events. Manual cell cycle gates were set onto the DMSO control data using Watson modeling as reference. These gates were applied to all treatment conditions to obtain quantitative analysis.
Error bars represent SEM. […] Caspase-Glo 3/7 reagent was added to each well and luminescence was read after 30 minutes. […] Error bars represent SEM. […] Cell cycle was analyzed by flow cytometry (20,000 singlet events) and cell cycle statistics were calculated in FlowJo software against DMSO Watson modeling (n=3). FIG. 3F) DNA synthesis was measured using EdU incorporation. […] EdU incorporation was labelled using TAMRA azide click-chemistry and imaged at 20×. Mean intensity of TAMRA signal within DAPI masks analyzed using Zen software (n>3900 cells over 2 replicates). Values are normalized to the average DMSO control within each replicate. Error bars represent SEM. Statistical significance calculated via one-way ANOVA with Tukey's multiple comparisons test (p<0.05).

[6] = test system: Ser345 phosphorylation of Chk1 in HEK 293 cells; experiment: western blot analysis of phosphorylation of Chk1; conditions: HEK 293 cells, 18 hours
[7] = target: T1, PARP-1 (Homo sapiens, UniProt P09874); experiment: fluorescence polarization DNA binding affinity assay; conditions: 5 μM inhibitor
From the text: The full-length WT PARP-1 protein used in these assays was purified as described previously (30).

[8] = target: T1, PARP-1; experiment: in vitro PARP-1 auto-PARylation assay (SRPK2 plate assay); format: biochemical; parameters: The full-length WT PARP-1 protein used in these assays; made in house; conditions: read-out: IC50 against PARP-1 catalytic activity (auto-PARylation)
Experimental: IC50 SRPK2 Plate Assays were performed as previously described (21). Log(inhibitor) versus response curves were fit using non-linear regression with variable slope. Mean IC50 values for each compound were derived from a minimum of three separate replicates.

T1 sequence (P09874 whole entry): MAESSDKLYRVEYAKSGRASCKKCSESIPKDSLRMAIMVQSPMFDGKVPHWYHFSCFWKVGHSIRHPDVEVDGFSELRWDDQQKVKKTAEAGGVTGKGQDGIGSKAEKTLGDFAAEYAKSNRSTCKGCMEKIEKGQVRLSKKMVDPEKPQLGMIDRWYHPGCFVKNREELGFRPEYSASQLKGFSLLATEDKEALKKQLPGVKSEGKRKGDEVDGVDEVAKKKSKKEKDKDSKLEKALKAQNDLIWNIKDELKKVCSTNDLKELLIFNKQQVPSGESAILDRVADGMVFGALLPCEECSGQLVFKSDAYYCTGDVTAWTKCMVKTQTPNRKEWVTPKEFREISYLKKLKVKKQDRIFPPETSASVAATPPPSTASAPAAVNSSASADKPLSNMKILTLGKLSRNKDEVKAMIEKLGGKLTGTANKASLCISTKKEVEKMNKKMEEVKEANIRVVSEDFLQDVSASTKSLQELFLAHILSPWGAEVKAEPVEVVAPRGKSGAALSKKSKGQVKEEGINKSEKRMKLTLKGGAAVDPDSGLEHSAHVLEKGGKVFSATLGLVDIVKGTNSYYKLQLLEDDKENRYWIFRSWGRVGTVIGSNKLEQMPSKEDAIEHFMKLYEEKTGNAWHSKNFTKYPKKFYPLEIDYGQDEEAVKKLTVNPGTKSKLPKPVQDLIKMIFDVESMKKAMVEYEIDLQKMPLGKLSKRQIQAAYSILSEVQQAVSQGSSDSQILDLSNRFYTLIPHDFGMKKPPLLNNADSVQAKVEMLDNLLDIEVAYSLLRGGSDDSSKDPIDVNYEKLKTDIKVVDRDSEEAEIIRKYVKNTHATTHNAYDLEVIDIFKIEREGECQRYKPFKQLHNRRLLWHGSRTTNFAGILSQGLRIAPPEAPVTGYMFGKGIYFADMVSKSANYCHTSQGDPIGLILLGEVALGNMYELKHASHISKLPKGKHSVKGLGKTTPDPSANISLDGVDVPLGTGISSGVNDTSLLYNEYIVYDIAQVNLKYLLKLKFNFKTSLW
Chain of R878A PARP-1 (P09874 whole entry R878A, the tested form may be a part): as the sequence (P09874 whole entry) above, with R878A counted along it

DNA binding to R878A PARP-1 [1]: similarly unaffected | increase of the affinity of PARP-1 for DNA ([7]; DNA dumbbell probe with central nick 5 nM): 4 fold | IC50 [8]: 12 nM
Substance: (S)-4-(difluoro(3-(6-methyl-3-(trifluoromethyl)-5,6,7,8-tetrahydro-[1,2,4]triazolo[4,3-a]pyrazine-7-carbonyl)phenyl)methyl)phthalazin-1(2H)-one [AZ0108]
EC50 ([2]; MTT, 72 h, read-out: EC50 cell growth): 30 nM and 29.7 nM | right-shift of the EC50 value for AZ0108 on cell growth ([2]; dual-treated with olaparib): 10 fold | reduction of caspase-3/7 activity [3]: 75% | block of EdU incorporation [4]: 65% | G1 ([5]; DAPI intensity, 18 hours): 9.31% | G2 ([5]; DAPI intensity, 18 hours): 9.65% | S ([5]; DAPI intensity, 18 hours): 77.4% | effect on cell cycle ([5]; FACS, DAPI fluorescence): arrested HEK 293 cells in S-phase | Ser345 phosphorylation of Chk1 [6]: induced Ser345 phosphorylation of Chk1 | effect on the affinity of PARP-1 for nicked DNA ([7]; compared to DMSO control): more pronounced effect on DNA binding to PARP-1
